These results are taken from PubChem BioAssay AID1199 (EPA DSSTox, 2008).

Active and inactive are the calls of the source.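 The calls were made as follows: active = a tumour-causing dose and a tumour site recorded for mice in at least one sex group; inconclusive = only government mouse studies exist and were judged inadequate; inactive = mouse studies exist but none gave tumours.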

The data set concerns mouse carcinogenicity bioassay, TD50 from CPDB. The data set is described as follows: DSSTox (CPDBAS) Carcinogenic Potency Database Summary Mouse Bioassay Results. In a few lines:
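Values are TD50 carcinogenic potencies from mouse chronic bioassays, taking the most positive result for each sex-species. Sources are published literature and NCI/NTP studies; target sites reflect author-reported positive findings.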

The mark [1] stands for this setting: TargetSites_Mouse_Female: no positive results.
Setting [2] is: TD50_Mouse_Note: no positive results, TargetSites_Mouse_Female: no positive results.
Where [3] appears, read: TD50_Mouse_Note: TD50 is harmonic mean of more than one positive test, TargetSites_Mouse_Female: lung.
The mark [4] stands for this setting: TD50_Mouse_Note: TD50 is harmonic mean of more than one positive test, TargetSites_Mouse_Female: liver.

With `O=[N+]([O-])c1ccc2c3c(cccc13)CC2`, the Potency (TargetSites_Mouse_Female: liver, ovary) was 0.23 mmol/kg/day.
As for `CCOc1ccc(NC(C)=O)cc1[N+](=O)[O-]`, the Potency under setting [1] was 10.1 mmol/kg/day.
With `[N]=O`, under setting [2], the result was inactive.
For `CCCCNN`, the Potency under setting [3] was 0.0971 mmol/kg/day.
`CN[C@H]1CC[C@@H](c2ccc(Cl)c(Cl)c2)c2ccccc21`: the outcome under setting [2] is “inactive; no positive results”.
Regarding `C=CC(=C)Cl`, the Potency (TD50_Mouse_Note: TD50 is harmonic mean of more than one positive test, TargetSites_Mouse_Female: ear Zymbals gland, harderian gland, liver, lung, mammary gland, peritoneal cavity, stomach, subcutaneous tissue, vascula) was 0.0923 mmol/kg/day.
Take `NNc1nc(-c2ccc([N+](=O)[O-])cc2)cs1`: the Potency (TargetSites_Mouse_Female: hematopoietic system) is 0.0449 mmol/kg/day.
Regarding `CN(C)C(=O)NC1CC2CC1C1CCCC21` (configuration not stated), under setting [2], the outcome is “inactive; no positive results”.
As to `O=C1CCCCCN1`, the outcome under setting [2] was “inactive; no positive results”.
Regarding `O=C(O)C(Cl)(Cl)Cl`, the Potency under setting [4] is 3.57 mmol/kg/day.
On to `COc1cc(-c2ccc(N=C=O)c(OC)c2)ccc1N=C=O`, for which the outcome under setting [2] was “inactive; no positive results”.
On to `C=C1CC[C@H](O)C/C1=C/C=C1\CCC[C@]2(C)[C@@H]([C@H](C)/C=C/[C@H](C)C(C)C)CC[C@@H]12`, for which, for the setting “TD50_Mouse_Note: no positive results”, the outcome was inactive.
`ClCC(Cl)Cl`: the Potency (TD50_Mouse_Note: TD50 is harmonic mean of more than one positive test, TargetSites_Mouse_Female: adrenal gland, liver) was 0.412 mmol/kg/day.
As for `Cc1cccc(Nc2cc(Cl)nc(SCC(=O)NCCO)n2)c1C`, the Potency (TargetSites_Mouse_Female: liver) was 0.122 mmol/kg/day.
Consider `CC1=C(C(=O)OCCN(Cc2ccccc2)c2ccccc2)C(c2cccc([N+](=O)[O-])c2)C(P2(=O)OCC(C)(C)CO2)=C(C)N1` (configuration not stated), for which, under setting [2], the outcome was “inactive; no positive results”.
Same read-out and setting: to `O=C(O)COc1ccc(Cl)cc1Cl` belongs “inactive; no positive results”; to `C=Cc1cccc[n+]1[O-]`, “inactive”.
`BrCCBr`: the Potency (TD50_Mouse_Note: TD50 is harmonic mean of more than one positive test, greater than ten-fold variation among TD50 values for positive res, TargetSites_Mouse_Female: esophagus, lung, mammary gland, nasal cavity, stomach, subcutaneous tissue, vascular system) was 0.0397 mmol/kg/day.
Consider `ClC#CCl`, for which the Potency (TD50_Mouse_Note: TD50 is harmonic mean of more than one positive test, TargetSites_Mouse_Female: harderian gland, kidney) is 0.00605 mmol/kg/day.
On to `O=[N+]([O-])c1cc([As](=O)(O)O)ccc1O`, for which the outcome under setting [2] was “inactive; no positive results”.
With `CC(=O)C(N=Nc1ccc(Cl)cc1Cl)C(=O)Nc1ccc(-c2ccc(NC(=O)C(N=Nc3ccc(Cl)cc3Cl)C(C)=O)c(C)c2)cc1C` (configuration not stated), for the setting “TargetSites_Mouse_BothSexes: no positive results”, the result was inactive.
Regarding `CCCC(Cl)CCC(Cl)CCC(Cl)CCC(Cl)CCC(Cl)CCC(Cl)CCC(C)Cl` (configuration not stated), the Potency under setting [1] is 11.6 mmol/kg/day.
Take `CC1=C[C@H]2[C@@]3(O)[C@H](C)[C@@H](O)[C@]4(O)[C@H]([C@@H]3C=C(CO)C[C@]2(O)C1=O)C4(C)C`: under “TD50_Mouse_Note: positive test results only by intraperitoneal or intravenous injection, TargetSites_Mouse_Female: hematopoietic system”, the Potency is 0.00606 mmol/kg/day.
Regarding `COc1cc2c(c3oc4cccc(O)c4c(=O)c13)C1C=COC1O2` (configuration not stated), under “TD50_Mouse_Note: TD50 is harmonic mean of more than one positive test, TargetSites_Mouse_Female: vascular system”, the Potency was 0.0028 mmol/kg/day.
Take `CN(C)CCO`: the outcome under setting [2] was inactive.
Still for that read-out and setting: the result for `CC(C)C[C@H]1C(=O)N2CCC[C@H]2[C@]2(O)O[C@](NC(=O)[C@@H]3C=C4c5cccc6[nH]c(Br)c(c56)C[C@H]4N(C)C3)(C(C)C)C(=O)N12` reads “inactive; no positive results”.
As for `O=[N+]([O-])c1ccc2nc[nH]c2c1`, the Potency under setting [4] is 2.28 mmol/kg/day.
For `O=S1OCC2C(CO1)C1(Cl)C(Cl)=C(Cl)C2(Cl)C1(Cl)Cl` (configuration not stated), under setting [2], the outcome was “inactive; no positive results”.
Consider `c1ccc2[nH]c(-c3cscn3)nc2c1`, for which the outcome under setting [2] was “inactive; no positive results”.
Take `Cn1c(=O)c2c(ncn2C)n(C)c1=O`: the outcome under setting [2] was “inactive; no positive results”.
`Cn1c(N)nc2ncc(-c3ccccc3)cc21`: the Potency (TD50_Mouse_Note: TD50 is harmonic mean of more than one positive test, TargetSites_Mouse_Female: hematopoietic system) is 0.127 mmol/kg/day.
For `CC(N)Cc1ccccc1` (configuration not stated), under setting [2], the outcome was “inactive; no positive results”.
Take `COC(=O)C1=C(C)NC(C)=C(C(=O)OCCN2CCN(C(c3ccccc3)c3ccccc3)CC2)C1c1cccc([N+](=O)[O-])c1` (configuration not stated): the outcome under setting [2] is “inactive; no positive results”.
Regarding `CBr`, under setting [2], the outcome was “inactive; no positive results”.
As for `Cc1ccc(N)cc1`, the Potency under setting [4] was 0.581 mmol/kg/day.
For `O=[N+]([O-])c1cccc2ccccc12`, the outcome under setting [2] was “inactive; no positive results”.
On the same count and under the same terms, the result for `CCc1cccc2c3c([nH]c12)C(CC)(CC(=O)O)OCC3` (configuration not stated) reads “inactive; no positive results”.
On to `Cc1cccc(N)c1`, for which the Potency (TD50_Mouse_Note: no positive results are statistically significant, TargetSites_Mouse_Female: no positive results) was 10 mmol/kg/day.
Consider `Cc1cccc2ccccc12`, for which the outcome under setting [2] is “inactive; no positive results”.
Consider `CC(=O)OCc1ccccc1`, for which, for the setting “TD50_Mouse_Note: TD50 is harmonic mean of more than one positive test, TargetSites_Mouse_Female: liver, stomach”, the Potency is 9.59 mmol/kg/day.
`NN`: the Potency under setting [3] is 0.0914 mmol/kg/day.
Turning to `CC(COc1ccc(C(C)(C)C)cc1)OS(=O)OCCCl` (configuration not stated), under setting [1], the Potency is 0.472 mmol/kg/day.
